# Experiments:
# [1] = tested on: zebrafish NLK 3′UTR; experiment: Luciferase fused to zebrafish NLK 3′UTR in K562 cells; format: cell-based; settings: transient transfection in K562, metformin 72 hrs
# [2] = tested on: NLK; experiment: Endogenous NLK protein in K562 cells (Western blot); format: cell-based, human; settings: K562, miRNA mimetics or metformin, 72 hrs
# Experimental: FIG. 14. Metformin-mediated upregulation of miR-26a in human progenitors suppresses NLK expression. (Panel A) Human CD34+ (upper) and murine Lin-Kit+ (lower) progenitors were differentiated for 8 days in the presence or absence of metformin and the levels of indicated miRNAs were assessed by qRT-PCR. (Panel B) K562 cells stably expressing the luciferase gene coupled to the NLK 3′UTR were mock transfected, transfected with indicated miRNA mimetics, or treated with metformin, and cultured in the presence or absence of metformin for 72 hrs. After lysis, luciferase activity was determined and endogenous NLK and GAPDH protein expression was analyzed by Western blot. (Panel C) K562 cells were mock transfected, or transfected with either miR-34 or miR-26 sponges, prior to being left untreated or treated with metformin for 72 hrs. Lysed cells were subjected to luciferase assay and western blotting to examine NLK and GAPDH protein expression. […] Statistics: two-tailed Student's t test, significant *P<0.05
# NLK kinase activity was performed as published (5). For Western blotting, antibodies against NLK (#AB97642; Abcam; 1:1000 dilution) and GAPDH (#MAB374; Millipore; 1:10000) were used according to manufacturer's instructions.
smiles,measurement,setting,value
CN(C)C(=N)N=C(N)N [metformin],"decrease of luciferase activity, zebrafish 3′UTR",[1],43.6%
same,reduction of endogenous NLK protein expression,[2],68.6%

# Reference: patent US12403132B2, “Methods of treating bone marrow failure syndromes and compositions for use in the same” (The Board of Trustees of the Leland Stanford Junior …, priority 2020, dated 2025)
